Assay [1] relates to rice (Oryza sativa L.: Hinihikari). As to the kind of experiment: Photo-oxidation damage, photosynthetic ability as oxygen generation rate, rice leaves. The following applies: for residual photosynthetic ability (oxygen generation rate): when control sample was reduced to 30%, concentration not given, FIG. 15.
In assay [2] the test system is formate dehydrogenase (FDH). The note with it: root of rice cultivated in the presence of 1.4 mM formic acid, 25° C., two weeks; FIG. 12. As for the experimental part:
Then the alteration of FDH activity by administration of formic acid was investigated. The rice plant bodies were cultivated in the presence or absence of 1.4 mM formic acid at 25° C. for two weeks. The aerial part and the ground part (root) was separated and the crude enzyme solution was prepared from each part. The enzyme solution was prepared to 1.5 mg/ml and FDH activities of the samples were measured. The FDH activity was measured using [^13C] formic acid as the substrate and detecting [^13C] CO2 in the supernatant by GC-MS.

The next assay deals with tabacco. The note with it: FIG. 18.
Another assay deals with kidney bean. The note with it: FIG. 19.
A further assay deals with FDH gene. The note with it: ground part (root) of rice; pretreatment with formic acid administration; FIG. 14.
For assay [3], the system named is kidney bean (Phaseolus vulgaris L.: tsurunashiinngenn). The following applies: 2 mM, FIG. 5. As to the method: (§1) The plants were seeded under a vermiculight.
(§2) Generation of oxygen was measured by clark type oxygen electrode. The cuvette (LD2/2 type), the oxygen electrode controller (CB 1-D3 type) and the light source (LS-2, Hansatec corp.) were adopted as components of the measuring device. The chamber of cuvette contained in this device is composed of combination of a chamber, capable of hermetically sealing with diameter of 35 mm and volume of 5 ml, and an oxygen electrode. As upper side of the chamber is transparent, arbitrary intensity of light can be illuminated. The plant body described above, after administration of formic acid, was enclosed in the chamber and sealed hermetically. It was illuminated using a halogen lamp as the light source, and the rate of oxygen generation was measured under the air containing 5% of carbon dioxide. Unless specified otherwise, the measurement was performed under the light adjusted to a intensity of 253 μmol quanta/m^2·s using a red filter or an attenuation filter. The oxygen generation was calculated by dividing the obtained value with the surface area of the leaf.

Assay [4] deals with tabacco (Nicotina tabacum L.: SRI). The note with it: 2 mM, FIG. 6. As to the method:
as §1, §2

The next assay has as its system rice plant bodies. Description: Plant growth test, rice. Format: in vivo, Oryza sativa L. The following applies: 2 weeks cultivation. An excerpt:
The effect of formate salts addition observed on plant growth was investigated. The seeds of rice were sterilized and seeded into a glass tube (130 mm×40 mm I.D) containing medium described below. The contents of the medium are ½MS salt, 0.1% gellan gum and various concentrations of sodium formate. The pH was adjusted to 6.0 by addition of 1N sodium hydroxide and the medium was sterilized by autoclave treatment. […] After cultivation for 2 weeks under this condition, the extent of growth was estimated by measurement of length of the aerial part and wet weight of plant bodies.

Where two headings read alike, the source gives them in different places.

Protocol for FDH gene: In the case of utilization for northern analysis, total RNA was isolated from leaf and root of rice cultivated under condition described above, using Isogen RNA purification kit (Nippon gene).
RNA was prepared from the aerial part and the ground part (root) respectively and the northern analysis was performed on these samples. Forty μg of the total RNA was applied to each lane and electrophoresis was performed on 1% agarose gel (containing 2.2 M formaldehyde). The gel was charged for the capillary blotting using Hybond N+membrane (Amersham) using 20×SSC. The hybridization was performed according to instruction of AlkPhosDIREST (Amersham) and detection was performed using CDP-Star (Amersham). The FDH cDNA (open reading frame:1130 bp), amplified by PCR, was used as probe DNA.

Regarding `O=C[O-].[Na+]` [formate salt], the “photosynthetic ability under various light intensities after photo-oxidation damage” value in assay [1] (formate salt, strong light illumination (inclination not altered under weak light), FIG. 3) is “inhibited damage on photosynthetic ability under strong light illumination”. The “residual photosynthetic ability (oxygen generation rate)” value in [1] was 60%.

As for `O=CO` [formate], the “damage on photo-system (Fv/Fm) caused by photo-oxidation damage” value with rice (2 mM, FIG. 7) is “avoided”.

Consider `O=CO` [formic acid], for which the “FDH activity compared to control group” value in assay [2] is listed as “about twice”. Moreover, the “damage on photo-system by chlorophyl fluorescence analysis” value in the assay with tabacco (2 mM) and in the assay on kidney bean (2 mM) was “potency” throughout. Also, the “expression of FDH gene” value in the assay with FDH gene is listed as “significant increase”.

For the molecule `CO` [methanol], the “reduction of Fv/Fm value caused by photo-oxidation damage” value in the assay with rice (25 mM or 50 mM, FIG. 17) is “significant inhibition”. The “damage on photo-system by chlorophyl fluorescence analysis” value in the assay on tabacco (100 mM) and with kidney bean (100 mM) was “significantly alleviated” each time. In addition, the “photosynthetic ability under various light intensities after photo-oxidation damage” value in assay [1] (methanol, especially under strong light illumination, FIG. 16) is given as “avoided photo-oxidation damage”. The “residual photosynthetic ability (oxygen generation rate)” value in assay [1] was found to be 70%.

On to `O=C[O-].[K+]` [potassium formate, Potassium formate], for which the “effect on oxygen generation rate reduction caused by photo-oxidation damage” value in assay [3] and in assay [4] was “exhibited inhibition” in each case. For the same molecule, in [1] (2 mM or 4 mM, FIG. 4), the “dose-dependency of protection on photo-oxidation damage” value was “optimum protection”. Moreover, the “oxygen generation activity retained after photo-oxidation damage” value in [1] (2 mM, 8 min strong light illumination in the absence of carbon dioxide, control reduced to about 30%, FIG. 1) worked out at 90%. In addition, the “time course of damage on photosynthetic ability” value in assay [1] (2 mM, photo-oxidation damage treatment 2 min, 4 min, FIG. 2) was “the damage on photosynthetic ability was inhibited”.

Turning to `O=C[O-].[Na+]` [sodium formate], in the assay with rice plant bodies (125 ppm in medium, FIG. 8), the “growth promotion, wet weight of plant bodies” value is 25%. Also, the “growth promotion, length of aerial part” value in the assay with rice plant bodies (125 ppm in medium, FIG. 9) was 25%. In addition, the growth promotion effect entry with rice plant bodies (1000 ppm in medium) is listed as “disappeared”.

The values above are taken from US6465396B1, “Method to promote growth of a plant” (Nara Institute of Science and Technology, priority 1999, dated 2002).
